Square brackets hold non-standard residues; d marks the D form. pY = N[C@@H](Cc1ccc(OP(=O)(O)O)cc1)C(=O)O
B1: ACTA1_Y171_YF phosphopeptide Ac-QPIFEG(pY)ALPHAG-NH2 (peptide)
peptide: Ac-QPIFEG[pY]ALPHAG-NH2
SMILES: CC[C@H](C)[C@H](NC(=O)[C@@H]1CCCN1C(=O)[C@H](CCC(N)=O)NC(C)=O)C(=O)N[C@@H](Cc1ccccc1)C(=O)N[C@@H](CCC(=O)O)C(=O)NCC(=O)N[C@@H](Cc1ccc(OP(=O)(O)O)cc1)C(=O)N[C@@H](C)C(=O)N[C@@H](CC(C)C)C(=O)N1CCC[C@H]1C(=O)N[C@@H](Cc1c[nH]cn1)C(=O)N[C@@H](C)C(=O)NCC(N)=O
notes: source: synthetic peptide (synthesized in-house, RP-HPLC purified)
B2: ACTA1_Y171_A172G_YF phosphopeptide Ac-QPIFEG(pY)GLPHAG-NH2 (peptide)
peptide: Ac-QPIFEG[pY]GLPHAG-NH2
SMILES: CC[C@H](C)[C@H](NC(=O)[C@@H]1CCCN1C(=O)[C@H](CCC(N)=O)NC(C)=O)C(=O)N[C@@H](Cc1ccccc1)C(=O)N[C@@H](CCC(=O)O)C(=O)NCC(=O)N[C@@H](Cc1ccc(OP(=O)(O)O)cc1)C(=O)NCC(=O)N[C@@H](CC(C)C)C(=O)N1CCC[C@H]1C(=O)N[C@@H](Cc1c[nH]cn1)C(=O)N[C@@H](C)C(=O)NCC(N)=O
notes: as for B1
B3: CBS_Y308 phosphopeptide Ac-QVEGIG(pY)DFIPTG-NH2 (peptide)
peptide: Ac-QVEGIG[pY]DFIPTG-NH2
SMILES: CC[C@H](C)[C@H](NC(=O)CNC(=O)[C@H](CCC(=O)O)NC(=O)[C@@H](NC(=O)[C@H](CCC(N)=O)NC(C)=O)C(C)C)C(=O)NCC(=O)N[C@@H](Cc1ccc(OP(=O)(O)O)cc1)C(=O)N[C@@H](CC(=O)O)C(=O)N[C@@H](Cc1ccccc1)C(=O)N[C@H](C(=O)N1CCC[C@H]1C(=O)N[C@H](C(=O)NCC(N)=O)[C@@H](C)O)[C@@H](C)CC
notes: as for B1
B4: CBS_Y308_G307S phosphopeptide Ac-QVEGIS(pY)DFIPTG-NH2 (peptide)
peptide: Ac-QVEGIS[pY]DFIPTG-NH2
SMILES: CC[C@H](C)[C@H](NC(=O)CNC(=O)[C@H](CCC(=O)O)NC(=O)[C@@H](NC(=O)[C@H](CCC(N)=O)NC(C)=O)C(C)C)C(=O)N[C@@H](CO)C(=O)N[C@@H](Cc1ccc(OP(=O)(O)O)cc1)C(=O)N[C@@H](CC(=O)O)C(=O)N[C@@H](Cc1ccccc1)C(=O)N[C@H](C(=O)N1CCC[C@H]1C(=O)N[C@H](C(=O)NCC(N)=O)[C@@H](C)O)[C@@H](C)CC
notes: as for B1

Assays:
c-Src kinase domain [1] = biological target: T1, c-Src kinase domain (Homo sapiens, UniProt P12931); test: pTyr-Var library bacterial peptide display kinase screen (enrichment scores); assay type: biochemical; conditions: sheet "Src";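 also: log2 fold change in enrichment of variant over reference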
Fer kinase domain = test: as above; assay type: biochemical, mouse; conditions: sheet "Fer"
EPHB1 kinase domain = test: as above; assay type: biochemical, human; conditions: for Screen: sheet EPHB1, effect of the variant peptide relative to its reference peptide in the pTyr-Var library screen (enrichment scores); for Screen (variant relative to reference peptide, measured in the pTyr-Var library screen): sheet "EPHB1", variant seq vs reference seq, bacterial peptide display enrichment
EPHB2 kinase domain = test: as above; assay type: biochemical, human; conditions: sheet EPHB2;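 also: log2 fold change in enrichment of variant over reference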
c-Src kinase domain [2] = biological target: T1, c-Src kinase domain; test: ADP-Quest continuous fluorimetric kinase assay (Michaelis-Menten parameters and initial rates); assay type: biochemical; conditions: c-Src kinase domain 10 nM, 100 μM ATP, 37 °C, three to five replicates, error = standard error of global Michaelis-Menten fit
From the text: A fluorescence-based assay from Eurofins (ADP Quest) was used to measure the Michaelis-Menten kinetic parameters for phosphorylation of the consensus peptides by purified tyrosine kinase domains. In this assay, ADP production as a result of kinase activity is coupled to the production of resorufin, a fluorophore that emits signal at 590 nm. For all experiments, the assay reactions were set up as described in the provided assay kit protocol, in a 384 well plate format. The peptide solutions were serially diluted in 100 mM Tris, pH 8.0, and the kinases were diluted to 50 nM in buffer (10 mM HEPES, 100 mM NaCl, 1 mM TCEP, 5 mM MgCl2, 10% (v/v) glycerol). The final reaction mixtures contained 10 nM of kinase with 100 μM of ATP. […] Phosphorylation reaction progress was monitored by measuring fluorescence at excitation 530 nm and emission 590 nm every 2 min at 37 °C on a plate reader (BioTek Synergy Neo 2). The fluorescence units (RFU) were converted to μM ADP by comparison to a standard curve, and the initial rates were extracted from the linear regime of the reaction progress curves. Initial rates were also measured for samples containing each kinase but lacking a peptide substrate, to account for background ATP hydrolysis. This background rate was subtracted from the rates measured in the presence of peptide. […]

c-Abl kinase domain = biological target: T2, c-Abl kinase domain (Mus musculus, UniProt P00520); test: pTyr-Var library bacterial peptide display kinase screen (enrichment scores); assay type: biochemical; conditions: fig5-data2, sheet "Abl"; Screen for the variant/reference peptide pair, pTyr-Var library;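 also: log2 fold change in enrichment of variant over reference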
T2 sequence (P00520 242-493 limits assumed): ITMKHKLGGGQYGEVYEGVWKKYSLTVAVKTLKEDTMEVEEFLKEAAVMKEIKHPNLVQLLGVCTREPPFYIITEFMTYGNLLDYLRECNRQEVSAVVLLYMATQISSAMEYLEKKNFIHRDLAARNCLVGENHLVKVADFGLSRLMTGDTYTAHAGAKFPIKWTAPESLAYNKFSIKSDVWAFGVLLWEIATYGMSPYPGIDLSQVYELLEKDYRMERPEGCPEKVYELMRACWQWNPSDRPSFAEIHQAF

[3] = biological target: human c-Src SH2 domain (residues 143-250) (human, UniProt P12931-1 143-250, biotin on the Avi tag (co-expression with the biotin ligase BirA)); test: fluorescence polarisation; competition: unlabeled phosphopeptide serially diluted against 30 nM fluorescent peptide and 240 nM (1.5 x KD) c-Src SH2; same buffer; 25 °C; cubic binding equation; conditions: both partners purified
[4] = variant peptide versus its reference peptide in the pTyr-Var library screen
[5] = value of the variant peptide against its reference peptide in the pTyr-Var library screen with Fer
[6] = effect of variant peptide relative to its reference peptide in the pTyr-Var library screen (enrichment scores)
[7] = effect of the variant peptide relative to its reference peptide in the pTyr-Var library screen
[8] = variant peptide relative to its reference peptide, pTyr-Var library screen enrichment
[9] = effect of the variant relative to its reference peptide in the pTyr-Var library screen

Row | Molecule | Screen (Fer kinase domain; [5]) | Screen (EPHB1 kinase domain) | Screen (EPHB2 kinase domain; [6]) | Screen (c-Src kinase domain [1]; [7]) | also measured
1 | ADAGMYGVLPW [PLP1_Y207_R205G] | 1.986 | 0.87 | 1.359 | – | Screen (c-Src kinase domain [1]; [4]): -0.01805
2 | Ac-GAEEEIYGIFGAKKKG-NH2 [SrcTide (2014), previously reported c-Src consensus substrate (Deng et al., 2014)] | – | – | – | – | Km (c-Src kinase domain [2]): 7 ± 3 µM; kcat (c-Src kinase domain [2]): 1.8±0.1 s^–1
3 | ENGPFYASFPP [GDAP2_Y488_T489A_YF] | 0.7376 | 1.693 | 2.037 | 0.1608 | –
4 | FRSSLYSLMET [MYO5C_Y633_L634S] | 3.791 | 2.366 | 1.684 | – | Screen (c-Src kinase domain [1]; [4]): 2.978
5 | GRKTLYSFFSP [UNG_Y8_Q4R] | – | – | – | – | Screen (c-Src kinase domain [1]; [4]): -1.198; Screen (Fer kinase domain; [8]): -1.21; Screen (variant relative to reference peptide, measured in the pTyr-Var library screen) (EPHB1 kinase domain): -1.828; Screen (EPHB2 kinase domain; [9]): -1.763
6 | HLVLNYGVCFC [JAK2_Y613_V617F] | – | 0.008865 | 0.8396 | – | Screen (c-Abl kinase domain): 1.962
7 | HNMPIYEGFAL [ACTA1_Y168_V165M_YF] | 0.2696 | 0.09959 | 0.1725 | 0.3248 | Screen (c-Abl kinase domain): -1.455
8 | HNVPIYEGFGL [ACTA1_Y168_A172G_YF] | -0.2533 | 0.1073 | 0.031 | -0.3085 | Screen (c-Abl kinase domain): -0.8833
9 | INPIIYAFVVE [CCR5_Y297_G301V] | -1.367 | -1.262 | -1.294 | -0.9018 | –
10 | ISSLLYELLEE [TRPC6_Y896_R895L] | – | – | – | – | Screen (c-Src kinase domain [1]; [4]): 3.086; Screen (Fer kinase domain; [8]): 3.789; Screen (variant relative to reference peptide, measured in the pTyr-Var library screen) (EPHB1 kinase domain): 3.527; Screen (EPHB2 kinase domain; [9]): 3.042
11 | KQQEIYQEVTQ [CD209_Y239_L242V] | 1.048 | 0.2667 | 0.564 | -0.1121 | –
12 | LNGDRYFKGIV [DCX_Y64_R59L] | 2.021 | 2.112 | 1.457 | – | Screen (c-Abl kinase domain): 0.06367
13 | LTTEAYEWEPC [ELMOD3_Y61_R66C] | 1.258 | 1.595 | 1.193 | 2.164 | –
14 | NKFTTYLPWLP [C9orf24_Y126_R129W_YF] | 4.402 | 3.061 | 3.885 | 3.427 | –
15 | NNHGNYIVHLG [ETFDH_Y172_R175H] | – | 2.943 | 1.999 | – | –
16 | NREGVYTDFAP [TGFBI_Y537_V539D] | – | – | – | – | Screen (c-Src kinase domain [1]; [4]): -0.2611; Screen (Fer kinase domain; [8]): -1.802; Screen (variant relative to reference peptide, measured in the pTyr-Var library screen) (EPHB1 kinase domain): -2.047; Screen (EPHB2 kinase domain; [9]): -1.696
17 | NVVQEYERVII [NPHS2_Y131_K126N] | 0.1682 | -0.6061 | -0.3645 | – | –
18 | PFTRNYFVWAV [CYBA_Y87_R90W_YF] | 2.258 | 3.209 | 2.204 | – | Screen (c-Abl kinase domain): 0.4523
19 | PLEGEYFTLQI [TP53_Y327_D324E] | – | – | – | – | Screen (c-Src kinase domain [1]; [4]): 0.9967; Screen (Fer kinase domain; [8]): 1.311; Screen (variant relative to reference peptide, measured in the pTyr-Var library screen) (EPHB1 kinase domain): 1.418; Screen (EPHB2 kinase domain; [9]): 1.812
20 | QNTVDYFDLFG [PTPN11_Y62_G60V_YF] | – | -3.39 | -4.099 | – | Screen (c-Src kinase domain [1]; [4]): -1.317
21 | QPSALYEDRFL [ASS1_Y83_S79P_YF] | 0.05915 | -0.4777 | 0.0303 | -0.4742 | –
22 | QTPVLYTMLDH [MPZ_Y220_A221T] | 0.203 | -1.287 | -2.33 | -0.5854 | –
23 | RQSTLYSFFPT [MSH6_Y8_K13T] | 1.758 | -0.1515 | 0.1224 | -0.09567 | –
24 | VDTGVYAVPPP [BCAR1_Y410_S407T] | 0.101 | 0.1474 | 0.0652 | -0.01564 | –
25 | VVQGIYGFHHH [UFSP2_Y285_Y290H_YF] | – | – | – | – | Screen (c-Src kinase domain [1]; [4]): 0.2882; Screen (Fer kinase domain; [8]): -0.4799; Screen (variant relative to reference peptide, measured in the pTyr-Var library screen) (EPHB1 kinase domain): -1.444; Screen (EPHB2 kinase domain; [9]): -2.017
26 | B1 | – | – | – | – | binding result [3]: binds
27 | B2 | – | – | – | – | binding result [3]: binds
28 | B3 | – | – | – | – | binding result [3]: binds
29 | B4 | – | – | – | – | binding result [3]: binds

Reference: article PMC10065799, “High-throughput profiling of sequence recognition by tyrosine kinases and SH2 domains using bacterial peptide display” (eLife, 2023)
